In ChEMBL document CHEMBL2202954, “The effect of PLC-γ2 inhibitors on the growth of human tumour cells” (2012):

Key:
Format in all cases: functional
MDA-MB-468 = assay: Cytotoxicity against human MDA-MB-468 cells assessed as cellular growth at 10 uM by SRB assay
T47D = assay: Cytotoxicity against human T47D cells assessed as cellular growth at 10 uM by SRB assay
BT-549 = assay: Cytotoxicity against human BT549 cells assessed as cellular growth at 10 uM by SRB assay
Hs-578T = assay: Cytotoxicity against human Hs578T cells assessed as cellular growth at 10 uM by SRB assay
MDA-MB-231 = assay: Cytotoxicity against human MDA-MB-231 cells assessed as cellular growth at 10 uM by SRB assay
MCF7 = assay: Cytotoxicity against human MCF7 cells assessed as cellular growth at 10 uM by SRB assay
DU-145 = assay: Cytotoxicity against human DU145 cells assessed as cellular growth at 10 uM by SRB assay
UO-31 = assay: Cytotoxicity against human UO31 cells assessed as cellular growth at 10 uM by SRB assay
PC-3 = assay: Cytotoxicity against human PC3 cells assessed as cellular growth at 10 uM by SRB assay
TK-10 = assay: Cytotoxicity against human TK10 cells assessed as cellular growth at 10 uM by SRB assay
SN12C = assay: Cytotoxicity against human SN12C cells assessed as cellular growth at 10 uM by SRB assay
RXF 393 = assay: Cytotoxicity against human RXF393 cells assessed as cellular growth at 10 uM by SRB assay
ACHN = assay: Cytotoxicity against human ACHN cells assessed as cellular growth at 10 uM by SRB assay
CAKI-1 = assay: Cytotoxicity against human Caki1 cells assessed as cellular growth at 10 uM by SRB assay
A498 = assay: Cytotoxicity against human A498 cells assessed as cellular growth at 10 uM by SRB assay
786-0 = assay: Cytotoxicity against human 786-0 cells assessed as cellular growth at 10 uM by SRB assay
SK-OV-3 = assay: Cytotoxicity against human SKOV3 cells assessed as cellular growth at 10 uM by SRB assay
[1] = Cytotoxicity against human NCI-ADR-RES cells assessed as cellular growth at 10 uM by SRB assay
OVCAR-8 = assay: Cytotoxicity against human OVCAR8 cells assessed as cellular growth at 10 uM by SRB assay
OVCAR-4 = assay: Cytotoxicity against human OVCAR4 cells assessed as cellular growth at 10 uM by SRB assay
OVCAR-5 = assay: Cytotoxicity against human OVCAR5 cells assessed as cellular growth at 10 uM by SRB assay
OVCAR-3 = assay: Cytotoxicity against human OVCAR3 cells assessed as cellular growth at 10 uM by SRB assay
IGROV-1 = assay: Cytotoxicity against human IGROV1 cells assessed as cellular growth at 10 uM by SRB assay
UACC-62 = assay: Cytotoxicity against human UACC62 cells assessed as cellular growth at 10 uM by SRB assay
UACC-257 = assay: Cytotoxicity against human UACC257 cells assessed as cellular growth at 10 uM by SRB assay
SK-MEL-5 = assay: Cytotoxicity against human SK-MEL-5 cells assessed as cellular growth at 10 uM by SRB assay
SK-MEL-28 = assay: Cytotoxicity against human SK-MEL-28 cells assessed as cellular growth at 10 uM by SRB assay
SK-MEL-2 = assay: Cytotoxicity against human SK-MEL-2 cells assessed as cellular growth at 10 uM by SRB assay
MDA-MB-435 = assay: Cytotoxicity against human MDA-MB-435 cells assessed as cellular growth at 10 uM by SRB assay
M14 = assay: Cytotoxicity against human M14 cells assessed as cellular growth at 10 uM by SRB assay
Malme-3M = assay: Cytotoxicity against human MALME-3M cells assessed as cellular growth at 10 uM by SRB assay
LOX IMVI = assay: Cytotoxicity against human LOXIMVI cells assessed as cellular growth at 10 uM by SRB assay
U-251 = assay: Cytotoxicity against human U251 cells assessed as cellular growth at 10 uM by SRB assay
SNB-75 = assay: Cytotoxicity against human SNB75 cells assessed as cellular growth at 10 uM by SRB assay
SNB-19 = assay: Cytotoxicity against human SNB19 cells assessed as cellular growth at 10 uM by SRB assay
SF-539 = assay: Cytotoxicity against human SF539 cells assessed as cellular growth at 10 uM by SRB assay
SF-295 = assay: Cytotoxicity against human SF295 cells assessed as cellular growth at 10 uM by SRB assay
SF-268 = assay: Cytotoxicity against human SF268 cells assessed as cellular growth at 10 uM by SRB assay
SW-620 = assay: Cytotoxicity against human SW620 cells assessed as cellular growth at 10 uM by SRB assay
KM12 = assay: Cytotoxicity against human KM12 cells assessed as cellular growth at 10 uM by SRB assay
HT-29 = assay: Cytotoxicity against human HT-29 cells assessed as cellular growth at 10 uM by SRB assay
HCT-15 = assay: Cytotoxicity against human HCT15 cells assessed as cellular growth at 10 uM by SRB assay
HCT-116 = assay: Cytotoxicity against human HCT116 cells assessed as cellular growth at 10 uM by SRB assay
HCC 2998 = assay: Cytotoxicity against human HCC2998 cells assessed as cellular growth at 10 uM by SRB assay
NCI-H522 = assay: Cytotoxicity against human NCI-H522 cells assessed as cellular growth at 10 uM by SRB assay
COLO 205 = assay: Cytotoxicity against human COLO205 cells assessed as cellular growth at 10 uM by SRB assay
NCI-H460 = assay: Cytotoxicity against human NCI-H460 cells assessed as cellular growth at 10 uM by SRB assay
NCI-H322M = assay: Cytotoxicity against human NCI-H322M cells assessed as cellular growth at 10 uM by SRB assay
NCI-H226 = assay: Cytotoxicity against human NCI-H226 cells assessed as cellular growth at 10 uM by SRB assay
NCI-H23 = assay: Cytotoxicity against human NCI-H23 cells assessed as cellular growth at 10 uM by SRB assay
HOP-92 = assay: Cytotoxicity against human HOP92 cells assessed as cellular growth at 10 uM by SRB assay
EKVX = assay: Cytotoxicity against human EKVX cells assessed as cellular growth at 10 uM by SRB assay
HOP-62 = assay: Cytotoxicity against human HOP62 cells assessed as cellular growth at 10 uM by SRB assay
A549 = assay: Cytotoxicity against human A549 cells assessed as cellular growth at 10 uM by SRB assay
MOLT-4 = assay: Cytotoxicity against human MOLT4 cells assessed as cellular growth at 10 uM by SRB assay
RPMI-8226 = assay: Cytotoxicity against human RPMI8226 cells assessed as cellular growth at 10 uM by SRB assay
K562 = assay: Cytotoxicity against human K562 cells assessed as cellular growth at 10 uM by SRB assay
HL-60(TB) = assay: Cytotoxicity against human HL-60(TB) cells assessed as cellular growth at 10 uM by SRB assay
CCRF-CEM = assay: Cytotoxicity against human CCRF-CEM cells assessed as cellular growth at 10 uM by SRB assay

## N#Cc1ccc(NC(=O)c2sc3nc4c(cc3c2N)C(=O)CCC4)cc1
MDA-MB-468
  Activity: 97.58%
T47D
  Activity: 95.85%
BT-549
  Activity: 108.43%
Hs-578T
  Activity: 110.8%
MDA-MB-231
  Activity: 109.01%
MCF7
  Activity: 97.4%
DU-145
  Activity: 94.94%
UO-31
  Activity: 103.56%
PC-3
  Activity: 106.64%
TK-10
  Activity: 65.94%
SN12C
  Activity: 98.35%
RXF 393
  Activity: 119.14%
ACHN
  Activity: 107.57%
CAKI-1
  Activity: 93.27%
A498
  Activity: 79.55%
786-0
  Activity: 97.81%
SK-OV-3
  Activity: 106.21%
[1]
  Activity: 105.72%
OVCAR-8
  Activity: 104.55%
OVCAR-4
  Activity: 105.84%
OVCAR-5
  Activity: 89.16%
OVCAR-3
  Activity: 113.89%
IGROV-1
  Activity: 113.1%
UACC-62
  Activity: 99.27%
UACC-257
  Activity: 105.99%
SK-MEL-5
  Activity: 92.55%
SK-MEL-28
  Activity: 105.89%
SK-MEL-2
  Activity: 83%
MDA-MB-435
  Activity: 97.44%
M14
  Activity: 105.98%
Malme-3M
  Activity: 89.34%
LOX IMVI
  Activity: 111.96%
U-251
  Activity: 106.08%
SNB-75
  Activity: 113.44%
SNB-19
  Activity: 101.84%
SF-539
  Activity: 99.77%
SF-295
  Activity: 82.4%
SF-268
  Activity: 102.29%
SW-620
  Activity: 98.14%
KM12
  Activity: 101.12%
HT-29
  Activity: 84.91%
HCT-15
  Activity: 100.78%
HCT-116
  Activity: 107.92%
HCC 2998
  Activity: 99.15%
NCI-H522
  Activity: 102.85%
COLO 205
  Activity: 108.98%
NCI-H460
  Activity: 85.91%
NCI-H322M
  Activity: 102.55%
NCI-H226
  Activity: 93.7%
NCI-H23
  Activity: 106.13%
HOP-92
  Activity: 95.57%
EKVX
  Activity: 93.58%
HOP-62
  Activity: 100.94%
A549
  Activity: 92.54%
MOLT-4
  Activity: 114.77%
RPMI-8226
  Activity: 95.69%
K562
  Activity: 108.42%
HL-60(TB)
  Activity: 81.02%
CCRF-CEM
  Activity: 99.79%

## O=C(NCCc1ccccc1)c1[nH]c2ccccc2c1Cl
MDA-MB-468
  Activity: 64.9%
T47D
  Activity: 71.67%
BT-549
  Activity: 91.75%
Hs-578T
  Activity: 97.21%
MDA-MB-231
  Activity: 80.08%
MCF7
  Activity: 83.19%
DU-145
  Activity: 91.9%
UO-31
  Activity: 57.64%
PC-3
  Activity: 70.3%
TK-10
  Activity: 154.81%
SN12C
  Activity: 97.03%
RXF 393
  Activity: 103.44%
ACHN
  Activity: 90.71%
CAKI-1
  Activity: 78.12%
A498
  Activity: 81.46%
786-0
  Activity: 102.69%
SK-OV-3
  Activity: 91.3%
[1]
  Activity: 87.28%
OVCAR-8
  Activity: 84.42%
OVCAR-4
  Activity: 82.6%
OVCAR-5
  Activity: 104.54%
OVCAR-3
  Activity: 72.81%
IGROV-1
  Activity: 82.65%
UACC-62
  Activity: 84.19%
UACC-257
  Activity: 96.54%
SK-MEL-5
  Activity: 82.39%
SK-MEL-28
  Activity: 106.79%
SK-MEL-2
  Activity: 129.02%
MDA-MB-435
  Activity: 96.07%
M14
  Activity: 106.45%
Malme-3M
  Activity: 109.22%
LOX IMVI
  Activity: 89.47%
U-251
  Activity: 92.92%
SNB-75
  Activity: 79.43%
SNB-19
  Activity: 99.04%
SF-539
  Activity: 102.52%
SF-295
  Activity: 82.28%
SF-268
  Activity: 92.71%
SW-620
  Activity: 92.61%
KM12
  Activity: 72.97%
HT-29
  Activity: 100.49%
HCT-15
  Activity: 86.01%
HCT-116
  Activity: 87.15%
HCC 2998
  Activity: 101.44%
NCI-H522
  Activity: 96.12%
COLO 205
  Activity: 99.13%
NCI-H460
  Activity: 89.75%
NCI-H322M
  Activity: 98.86%
NCI-H226
  Activity: 73.27%
NCI-H23
  Activity: 84.26%
HOP-92
  Activity: 72.64%
EKVX
  Activity: 57.12%
HOP-62
  Activity: 86.43%
A549
  Activity: 96.24%
MOLT-4
  Activity: 70.04%
RPMI-8226
  Activity: 71.07%
K562
  Activity: 74.92%
HL-60(TB)
  Activity: 90.02%
CCRF-CEM
  Activity: 86.13%
